Data on one compound can be found in patent publication US20150038430A1, “THERAPEUTIC PEPTIDOMIMETIC MACROCYCLES” (AILERON Therapeutics, Inc., priority 2008, published 2015).

Numbered stars: 1 amine (or outer) side, 2 acyl side, 3 side chain; on linkers, the order of the positions; unused ones are H or OH. Bridge positions count the residues as written; N and C are the ends. Square brackets hold non-standard residues; d marks the D form. Peptide text beside a SMILES is read from it. ξ: configuration not given here. ξαMeNle(6-ylidene) = CC(CCCC=[*:3])(N[*:1])C(=O)[*:2]; Nle = CCCC[C@H](N)C(=O)O

Data set [1] concerns leukemia/lymphoma human cell lines. In words: MTT cell viability assay, leukemia/lymphoma lines. It counts as cell-based. As to conditions: 20 μM, MTT 48 hrs, FIG. 1. As to the method:
(§1) Cell viability assays shown in FIGS. 1-32 were performed according to the following protocol. Tumor cell lines were grown in specific serum-supplemented media (growth media) as necessary. A day prior to the initiation of the study, cells were plated at optimal cell density (15,000 to 25,000 cells/well) in 200 μl growth media in microtiter plates. The next day, cells were washed twice in serum-free/phenol red-free RPMI complete media (assay buffer) and a final volume of 100 μl assay buffer was added to each well. Human peripheral blood lymphocytes (hPBLs) were isolated from Buffy coats (San Diego Blood Bank) using Ficoll-Paque gradient separation and plated on the day of the experiment at 25,000 cells/well.
(§2) Peptidomimetic macrocycles were diluted from 1 mM stocks (100% DMSO) in sterile water to prepare 400 μM working solutions. The peptidomimetic macrocycles and controls were then diluted 10 or […] or alternatively serially two-fold diluted in assay buffer in dosing plates to provide concentrations of either 40 and 20 μM or between 1.2 and 40 μM, respectively. […]
(§3) Towards the end of the 4 hour incubation time, 22 μl FBS was added to each well for a total concentration of 10% FBS. […] At the end of the incubation period, MTT assay was performed according to manufacturer's instructions (Sigma, catalog #M2128) and absorbance was measured at 560 nm using Dynex Opsys MR Plate reader. […]

The subject of a further data set is NCI-H220. In words: MTT cell viability assay, NCI-H220. The class given is cell-based, human. The settings on record: 20 μM, MTT 48 hrs, FIG. 1. As to the method:
as §1, §2, §3

The test system of a further data set is NCI-H128. Nature of the data set: MTT cell viability assay, NCI-H128. The settings on record: 20 μM, MTT 48 hrs, FIG. 1. The class given is cell-based, human. As to the method:
as §1, §2, §3

The next data set relates to NCI-H146. Nature of the data set: MTT cell viability assay, NCI-H146. It counts as cell-based, human. As to conditions: 20 μM, MTT 48 hrs, FIG. 1. As to the method:
as §1, §2, §3

The subject of another data set is A-549. Nature of the data set: MTT cell viability assay, A-549. It counts as cell-based, human. The settings on record: 20 μM, MTT 48 hrs, FIG. 1. As to the method:
as §1, §2, §3

A further data set deals with H-460. Nature of the data set: MTT cell viability assay, H-460. The class given is cell-based, human. The settings on record: 20 μM, MTT 48 hrs, FIG. 1. As to the method: as §1, §2, §3
The test system of the next data set is MCF7. Nature of the data set: MTT cell viability assay, MCF7. It counts as cell-based, human. The settings on record: 20 μM, MTT 48 hrs, FIG. 1. As to the method: as §1, §2, §3
The subject of the next data set is U251. Nature of the data set: MTT cell viability assay, U251. The class given is cell-based, human. The settings on record: 20 μM, MTT 48 hrs, FIG. 1. As for the experimental part: as §1, §2, §3
The subject of data set [2] is resting human peripheral lymphocytes (hPBLs). Nature of the data set: Cell viability of resting hPBLs. As to conditions: FIG. 16. It counts as cell-based. As for the experimental part: as §1, §2, §3
Data set [3] deals with SEMK2 human leukemia xenograft. Nature of the data set: SEMK2 human leukemia xenograft model. As to conditions: daily tail vein injection, 3, 10 or 30 mg/Kg/day. It counts as in vivo, NOD-SCID mice. As for the experimental part:
To determine the anti-oncogenic activity of peptidomimetic macrocycles of the invention in vivo, the compounds are, for example, given alone (IP, IV, SC, PO, by inhalation or nasal routes) or in combination with sub-optimal doses of relevant chemotherapy (e.g., cyclophosphamide, doxorubicin, etoposide). In one example, 5×10^6 SEMK2 cells (established from the bone marrow of a patient with acute lymphoblastic leukemia) that stably express luciferase are injected by tail vein in NOD-SCID, SCID-beige or NOD.IL2rg KO mice 3 hrs after they have been subjected to total body irradiation. Non-radiated mice may also be used for these studies. If left untreated, this form of leukemia is fatal in 3 weeks in this model. The leukemia is readily monitored, for example, by injecting the mice with D-luciferin (60 mg/kg) and imaging the anesthetized animals (e.g., Xenogen In Vivo Imaging System, Caliper Life Sciences, Hopkinton, Mass.). Total body bioluminescence is quantified by integration of photonic flux (photons/sec) by Living Image Software (Caliper Life Sciences, Hopkinton, Mass.). […] Optionally, the mice are imaged throughout the experiment every other day and survival monitored daily for the duration of the experiment. […]

In the case of `CCCC[C@H](NC(=O)C1(C)CCCC=CCCCC(C)(NC(=O)[C@H](C)NC(=O)[C@H](CC(C)C)NC(=O)[C@H](Cc2c[nH]cn2)NC(=O)[C@H](CCCNC(=N)N)NC(=O)[C@H](C)NC(=O)[C@@H](NC(=O)[C@H](CC(N)=O)NC(=O)[C@H](CCCNC(=N)N)NC(=O)[C@@H](NC(=O)[C@@H](NC(=O)[C@H](CC(=O)O)NC(C)=O)[C@@H](C)CC)[C@@H](C)CC)[C@@H](C)CC)C(=O)N[C@@H](C(C)C)C(=O)NCC(=O)N[C@@H](CC(=O)O)C(=O)N1)C(=O)N[C@@H](CC(=O)O)C(=O)N[C@@H](CCCNC(=N)N)C(=O)N[C@@H](CO)C(=O)N[C@H](C(N)=O)[C@@H](C)CC` (stereo partly shown) [SP-1] (Ac-DIIRNIARHLA[ξαMeNle(6-ylidene)]VGD[ξαMeNle(6-ylidene)][Nle]DRSI-NH2; staple 12-16), in [1], the “sensitivity of all leukemia/lymphoma lines tested” value was “sensitive”. Further, the “apoptosis of NCI-H220 (SCLC)” value in the data set with NCI-H220 is “induced apoptosis”. For the same compound, the “apoptosis of NCI-H128 (SCLC)” value in the data set with NCI-H128 was “induced apoptosis”. In addition, the “apoptosis of NCI-H146 (SCLC)” value in the data set with NCI-H146 is “induced apoptosis”. In addition, the “sensitivity of A-549 (NSCLC)” value with A-549 is “resistant”. Also, the “sensitivity of H-460 (NSCLC)” value with H-460 is recorded as “resistant”. Moreover, the “sensitivity of MCF7 (breast cancer)” value with MCF7 is listed as “resistant”. Further, the “sensitivity of U251 (glioma)” value in the data set on U251 was “resistant”. In addition, in data set [2], the “programmed cell death of resting hPBLs” value is “does not induce programmed cell death”. Further, in data set [3], the “tumor burden / tumor progression (total body bioluminescence)” value was “decreases tumor burden”.
